# Measurements: PMC12645083, “Microwave‐Enhanced Synthesis of 2‐Styrylquinoline‐4‐Carboxamides With Promising Anti‐Lymphoma Activity” (Archiv Der Pharmazie, 2025)
# How the values were obtained:
# Assay type in all cases: cell-based, human
# TOLEDO [1] = assay: Cell-cycle analysis (flow cytometry); details: 2 µM, 48 h
# Protocol: Cells were plated in 12‐well plates at 0.2 × 10⁶ cells/mL in 1 mL of complete medium. After 24 h, cells were treated with the specified compound concentrations. […] Cells were then stained and processed as previously described. Data acquisition was performed using a Coulter Cytomics FC500 flow cytometer (Beckman Coulter).
# VL51 [2] = assay: Mitochondrial ROS detection (MitoSOX); details: 24 h of treatment
# Protocol: (§1) Cells were plated in 12‐well plates at 0.2 × 10⁶ cells/mL in 1 mL of complete medium. After 24 h, cells were treated with the indicated compound concentrations. Following a 24‐h treatment, cells were stained with 0.5 µM MitoSOX (Invitrogen, US) for 20 min. After washing with PBS, fluorescence was measured using a CytoFLEX flow cytometer (Beckman Coulter) and analyzed with FlowJo software v.10.7.1.
# TOLEDO [3] = assay: Mitochondrial ROS detection (MitoSOX); details: 24 h of treatment
# Protocol: as §1
# VL51 [4] = assay: Apoptosis assay, Annexin V/PI staining; details: 2 µM, 48 h
# Protocol: (§2) For apoptosis evaluation, cells were plated in 12‐well plates at 0.2 × 10⁶ cells/mL in 1 mL of complete medium. After 24 h, cells were treated with the indicated compound concentrations. After 48 h, cells were harvested, centrifuged, and stained with Annexin V‐FITC and propidium iodide (PI) using the Annexin‐V Fluos kit (Roche Diagnostics), following the manufacturer's instructions. Fluorescence was analyzed using a Coulter Cytomics FC500 flow cytometer (Beckman Coulter) with detection in the FL1 and FL3 channels, respectively.
# TOLEDO [5] = assay: Apoptosis assay, Annexin V/PI staining; details: 2 µM, 48 h
# Protocol: as §2
# VL51 [6] = assay: Mitochondrial membrane potential analysis (TMRE); details: 24 h of treatment
# Protocol: (§3) Cells were plated in 12‐well plates at 0.2 × 10⁶ cells/mL in 1 mL of complete medium. After 24 h, cells were treated with the indicated compound concentrations. Following a further 24‐h incubation, cells were stained with TMRE (Invitrogen, US) at 1 µM for 20 min. After washing with 1X PBS, fluorescence was detected using a CytoFLEX flow cytometer (Beckman Coulter) and analyzed with FlowJo software v.10.7.1.
# TOLEDO [7] = assay: Mitochondrial membrane potential analysis (TMRE); details: 24 h of treatment
# Protocol: as §3
# VL51 [8] = assay: Cell-cycle analysis (flow cytometry); details: 2 µM, 48 h
# Protocol: Cells were plated in 12‐well plates at 0.2 × 10⁶ cells/mL in 1 mL of complete medium. After 24 h, cells were treated with the specified compound concentrations. Following an additional 24 h, cells were harvested, centrifuged, and fixed in 70% ice‐cold ethanol. Cells were then stained and processed as previously described. Data acquisition was performed using a Coulter Cytomics FC500 flow cytometer (Beckman Coulter).
# VL51 [9] = assay: EdU incorporation assay (DNA synthesis); details: 1 and 2 µM, 48 h
# Protocol: (§4) For evaluation of DNA synthesis, cells were plated in 12‐well plates at 0.2 × 10⁶ cells/mL in 1 mL of complete medium. After 24 h, cells were treated with the indicated compound concentrations. EdU (5‐ethynyl‐2‐deoxyuridine) incorporation was performed according to the Baseclick EdU Flow Cytometry Kit instructions (Sigma Aldrich, St. Louis, MO, USA) as previously described. EdU‐FITC incorporation was detected using a CytoFLEX flow cytometer (Beckman Coulter, Brea, CA, USA) and analyzed with FlowJo software v.10.7.1 (BD Biosciences).
# TOLEDO [10] = assay: EdU incorporation assay (DNA synthesis); details: 1 and 2 µM, 48 h
# Protocol: as §4
smiles,measurement,setting,value
"O=C(Nc1ccc([N+](=O)[O-])cc1)c1cc(/C=C/c2ccccc2)nc2ccccc12 [4i, (E)-N-(4-nitrophenyl)-2-styrylquinoline-4-carboxamide]",Cell-cycle distribution,TOLEDO [1],significant accumulation of cells in the G₂/M phase
same,Mitochondrial ROS (MitoSOX-positive cells),VL51 [2],marked dose‐dependent increase of mitochondrial ROS
same,Mitochondrial ROS (MitoSOX-positive cells),TOLEDO [3],marked dose‐dependent increase of mitochondrial ROS
same,Mode of cell death (Annexin V/PI),VL51 [4],induced late apoptosis and necrosis
same,Mode of cell death (Annexin V/PI),TOLEDO [5],induced late apoptosis and necrosis
same,Mitochondrial membrane depolarization (TMRE-negative cells),VL51 [6],increased percentage of TMRE‐negative cells
same,Mitochondrial membrane depolarization (TMRE-negative cells),TOLEDO [7],increased percentage of TMRE‐negative cells
same,Cell-cycle distribution,VL51 [8],significant accumulation of cells in the G₂/M phase
same,DNA synthesis (EdU incorporation),VL51 [9],"marked, dose‐dependent reduction in DNA synthesis"
same,DNA synthesis (EdU incorporation),TOLEDO [10],"marked, dose‐dependent reduction in DNA synthesis"
